Experiment [1] has as its system S. aureus (ATCC 29213). Nature of the experiment: Time-kill assay (bactericidal activity). In kind it is cell-based. As to the method: This inoculum preparation was used for all experiments. Time-kill assay: A time-kill assay was performed to monitor the bactericidal activity of propionic acid (PA). […] Assays were performed in 100 μl volumes in 96-well plates and incubated at 37° C. in a sealed bag to prevent evaporation. […] Bacterial growth was determined by counting CFUs. […] The assay was setup and evaluated as described above.

In experiment [2] the test system is S. aureus. To be noted: Shu et al. 2013; Wang et al. 2014; cited from earlier work.
For experiment [3], the system named is S. aureus (ATCC 29213). Nature of the experiment: Minimal inhibitory concentration (MIC) assay, microbroth dilution (CLSI M100-S22). It counts as cell-based. The settings on record: Staphylococcus aureus, ATCC29213; no esterase added; 10% DMSO; 16 hours at 37° C.; first well showing ≥90% reduction in growth; read-out: MIC against S. aureus. (In broth dilution the organism is exposed to a series of concentrations in liquid medium.)

SMILES strings stand for the structures. Converted amounts (≈) assume the structure as drawn.

For orientation: MIC means the smallest concentration in the dilution series that meets the test's criterion for growth inhibition.

For the compound `CCC(=O)O` [PA, propionic acid], the “time after which bactericidal against S. aureus” value in experiment [1] (4× the MIC (MIC 15 mM), sampled at 0, 1, 7, 24 hours, FIG. 2) worked out at 7 h. The “time after which S. aureus is completely killed” value in experiment [1] (4× the determined MIC, 0.2 mg/ml porcine liver esterase, sampled at 0, 1, 5, 24 hours, FIG. 4) stood at 5 h. Besides, the “growth of S. aureus (literature)” value in experiment [2] is recorded as “inhibit growth of S. aureus”. Also, the MIC in experiment [3] stood at 15 mM (≈ 1110 µg/mL).

(Values after patent US11364214B2, “Compositions and methods for treating eczema” (Dermala Inc., priority 2016, dated 2022).)
